The values below come from patent US20060277615A1, “Method of determining xenograft responses” (priority 2003, published 2006).

Assay [1] has as its system PC3/SFN cells xenografted tumours. Nature of the assay: Urine hCG in nude mice bearing PC3/SFN-hCG(myc)-Amp reporter xenografts. Format: in vivo, congenitally athymic nude mice. The settings on record: for increase of normalised urine hCG levels: 48 hours post-dosing vs pre-dose, normalised against urine creatinine, relative to tumour volume; for hCG expression in individual mice compared to vehicle controls: single dose ip (etoposide 40 mg/kg, camptothecin 30 mg/kg), urine 48 hours after drug administration. Here is the method: PC3 cells stably transfected with the SFN-hCG(myc)-Amp reporter construct were allowed to grow as solid subcutaneous tumours in congenitally athymic nude mice. The mice were then treated with anticancer drugs that act by inducing G2/M arrest. The drugs chosen for this exemplification were etoposide and camptothecin [12]. […] Wild-type and engineered PC3 tumour cell lines were cultured in RPMI medium supplemented with 10%-15% heat inactivated foetal calf serum, 2 mM L-glutamine, penicillin (50 IU/ml), streptomycin (50 μg/ml). Culture medium for PC3/SFN cells also contained G418 (200 μg/ml). Cultures were incubated in a humidified incubator at 37° C., 5% CO2. Cells were harvested, pooled, centrifuged, and re-suspended in cold medium. This was mixed with an equal volume of cold Matrigel, so that the tumour cell injection solution was a 50:50 mixture of tumour cells/medium and Matrigel for each cell line. Wild type or transfected PC3 cells were injected at 2.5×10^6 per animal. All cell lines were injected in a volume of 100 μl in the right hand flank only. The study consisted of 4 groups in total, each containing 4 animals. One group of mice was implanted with wild type PC3 cells and the remaining 3 groups with engineered cells. Tumour growth was measured twice-weekly following cell implantation until tumours reached 2-5 mm in diameter. Tumour volume (V) was calculated using the formula: V= 4/3π((d1+d2)/4)^3, where d=mean diameter (n=2) Treatment began 5 weeks after tumour implantation. Wild type PC3-xenografted mice remained untreated; all other mice were administered vehicle only (DMSO/saline) or test substances. Single administrations of Camptothecin (30 mg/kg) and Etoposide (40 mg/kg) were administered ip at 10 ml/kg. Additionally, Etoposide (25 mg/kg) was administered to a single group of mice over three consecutive days (ip; 10 ml/kg). Urine samples were harvested before, during and after drug administration. Animals were sacrificed 48 hours after treatment. Urine was analysed for hCG and values normalised against urine creatinine levels.

For assay [2], the system named is PC3 cells containing the SFN-hCG(myc)-Amp reporter construct. As to the kind of experiment: hCG induction in PC3 cells transiently transfected with SFN-hCG(myc)-Amp reporter construct (ELISA of medium). Format: cell-based, human. The settings on record: 50 μM etoposide, 24 hours, vs untreated. How it is done:
The SFN-hCG(myc)-Amp reporter construct was transfected into PC3 cells on 6-well tissue culture plates using FuGene reagent (Roche, Lewes, East Sussex). Construct DNA (equivalent to 1 μg/well) was added to FuGene reagent (3 μl/well) and made up to 100 μl/well with serum free medium. The medium in which the cells were growing was aspirated off and replaced with 100 μl of the above mixture per well. For transient transfections, the cells were used for experiments 24 hours after the addition of the construct.

In assay [3] the test system is PC3 cells stably engineered to contain the SFN-hCG(myc)-Amp construct. Nature of the assay: hCG induction in PC3 cells stably engineered to contain the SFN-hCG(myc)-Amp construct (ELISA of medium). Type of assay: cell-based, human. To be noted: stable PC3 cell line, 24 hours. How it is done: To generate a stable cell line, transfection was carried out as above. After 24 hours the cells were trypsinised and transferred to 10 cm tissue culture dishes (one well of a six well plate per 10 cm dish). The cells were allowed to grow on these dishes for 7 days prior to selection. After this time, G418 (20 ng/ml in cell culture medium) was added and the dishes maintained until colonies became visible (approximately one week). Individual colonies were picked using cloning discs soaked in typsin and transferred to individual wells of a 24 well plate. The colonies were then expanded to 6 well plates then T25 flasks and grown up until sufficient cells were present for use in in vitro inductions and xenograft experiments. Following the generation of a stable cell line containing the SFN-hCG(myc)-Amp reporter construct, the cells were further tested using etoposide. The cells were plated out on 6 well plates and allowed to adhere overnight. The next day they were treated with etoposide (50 or 400 μM) or vehicle (dimethyl sulphoxide). After 24 hours in the presence or absence of etoposide, samples of the medium were taken and assayed for hCG by enzyme-linked immunosorbent assay as above.
For orientation: In an ELISA, binding on a coated surface is turned into a signal by an enzyme label.

In the case of `CC[C@@]1(O)C(=O)OCc2c1cc1n(c2=O)Cc2cc3ccccc3nc2-1` [camptothecin], the “increase of normalised urine hCG levels” value in assay [1] (single dose 30 mg/kg ip) turned out to be 5.29 fold. In assay [1], the “hCG expression in individual mice compared to vehicle controls” value is listed as “significantly increased”.

Take `COc1cc([C@@H]2c3cc4c(cc3[C@@H](O[C@@H]3O[C@@H]5CO[C@@H](C)O[C@H]5[C@H](O)[C@H]3O)[C@H]3COC(=O)[C@H]23)OCO4)cc(OC)c1O` [etoposide]: the “amount of hCG secreted into the surrounding medium” value is on record as “increased” in assay [2] and “increased” in assay [3] (etoposide 50 or 400 μM, vs vehicle (dimethyl sulphoxide)). Moreover, the “amount of hCG secreted at higher concentration” value in assay [3] (400 μM vs 50 μM etoposide) is “increased”. Further, the “hCG levels at 24 and 48 hours following a third dose” value in assay [1] (3 consecutive doses of 25 mg/kg ip, 24 and 48 hours after third dose) is “dropped to control levels”. For the same compound, the “normalised hCG expression following the first dose” value in assay [1] (3 consecutive doses of 25 mg/kg ip, after first dose) is on record as “sharp increase”. Also, the “normalised hCG expression following a second dose” value in assay [1] (3 consecutive doses of 25 mg/kg ip, after second dose) is given as “remained at this level”. In assay [1] (3 consecutive doses of 25 mg/kg ip, inferred from the drop in urine hCG), the “anti-tumour effect against the PC3/SFN cells” value was “exhibited an anti-tumour effect”. The “increase of normalised urine hCG levels” value in assay [1] (single dose 40 mg/kg ip) was determined as 4.29 fold. The “hCG expression in individual mice compared to vehicle controls” value in assay [1] is listed as “significantly increased”.
